Measurements published in publication doi:10.1101/2022.11.21.517375v1, “Fragment-Based Hit Discovery via Unsupervised Learning of Fragment-Protein Complexes” (biorxiv, 2022).
Like-named read-outs stand apart in the source and are kept apart here.

What was measured:
[1] = biological target: T1, SARS-CoV-2 nsp3-Mac1 (HTRF assay) (Severe acute respiratory syndrome coronavirus 2, UniProt P0DTD1); experiment: HTRF displacement of ADP-ribose-conjugated biotin peptide; assay type: binding
T1 construct: gene rep

[2] = biological target: T2, SARS-CoV-2 main protease (Mpro) (Severe acute respiratory syndrome coronavirus 2, UniProt P0DTD1); experiment: fluorescence protease assay, fluorogenic peptide, dose response; assay type: biochemical
T2 construct: gene rep

[3] = biological target: T3, Mac1 (P43 crystals) (Severe acute respiratory syndrome coronavirus 2, UniProt P0DTD1); experiment: X-ray crystallography, crystal soaking, PanDDA; assay type: binding; conditions: active site; P43 crystals soaked at 10 or 20 mM for 2-[…]
T3 construct: gene rep

**Q.** Which inhibition at 250 µM ([1]; read-out: % inhibition at 250 μM) does the source give for `CCC(CNc1ncnc2[nH]cnc12)NC(=O)CCC1CCCCC1` (racemic) [Z5551425673] here?
**A.** Its inhibition at 250 µM is 30.1%.

**Q.** `COc1ccc2c(C(=O)NNc3nc4ccccc4[nH]3)cc(=O)[nH]c2c1` [ALP-UNI-ed5cdfd2-1] was tested. Which IC50 [2] did it give?
**A.** The IC50 was 19.4 µM.

**Q.** Which IC50 ([2]; pH 7.3, 20 mM HEPES, 1.0 mM TCEP, 50 mM NaCl, 5 nM Mpro, 37 nM substrate, 15 min pre-incubation, room temperature, read-out: IC50) does the source give for `O=C(NNc1nc2ccccc2[nH]1)c1cc(=O)[nH]c2ccccc12` [WIL-UNI-d4749f31-37] here?
**A.** Its IC50 is 25.8 µM.

**Q.** How did the “% inhibition at 250 μM” value ([1]; pH 7.0, 25 mM HEPES, 20 mM NaCl, […] protein, 400 nM peptide, room temperature) turn out when `CCNc1nc2c(cnn2C)c(=O)[nH]1` [Z1102995175] was run?
**A.** Its value is 24.8%.

**Q.** How did the “X-ray crystallography, crystal soaking, PanDDA” value [3] turn out when `CC[C@@H](CNc1ncnc2[nH]cnc12)NC(=O)CCC1CCCCC1` [Z5551425673 (S-stereoisomer)] was run?
**A.** Its value is “structure of Z5551425673 (as the S-stereoisomer) bound to the active site”.
